Source: US20120219615A1, “Therapeutic Use of a TLR Agonist and Combination Therapy” (The Trustees of the University of Pennsylvania, priority 2010, published 2012)

System: OVCAR5 cells
Assay: OVCAR5 apoptosis by annexin-V and 7AAD staining
Type: cell-based, human
Protocol: Cell viability Annexin V/7AAD: To detect apoptosis, tumor cells were stained with annexin V/7AAD (BD Pharmingen #559763). Apoptotic cells were analyzed by flow cytometry according to the manufacturer's protocol. Briefly, OVCAR5 cells grown and subjected to different treatments were collected and pelleted at 1200 rpm and then washed twice with ice-cold PBS and re-suspended in a binding buffer (Pharmingen #51-66121 E) at a concentration of 1×10^6 cells/mL; 100 μL of the solution (1×10^5 cells) was transferred to each of two 5-mL culture tubes. Five μL of annexin V-PE (Pharmingen #51-65875Y) and added to each 100 μL solution, gently vortexed, incubated for 15 min at room temperature in the dark, washed with PBS, incubated with 5 μL of 7AAD (BD Pharmingen #51-68981E) for 10 minutes, and analyzed by FACS within 1 h.
Besides tumor-specific CTLs, TLR8 activation may also invoke innate anti-tumor responses, including the release of soluble mediators such as members of the TNF family, which can act directly on tumor cells to induce apoptosis. […] Expression of the TNFα receptor 1 (TNFR1) in OVCAR5 cells was tested and documented by Western blot (FIG. 5C). During the sensitivity test of OVCAR5 cells to TNFα, cells were incubated for 24 hours with 20 ng/ml of TNFα, a dose that exerts direct cytotoxic effects. […]

TNFα was tested. Which “TNFα-mediated apoptosis of OVCAR5 cells” value (20 ng/ml TNFα, 24 hours) did it give?
The value was “resistant to TNFα-mediated apoptosis”.

What about the “apoptosis of OVCAR5 cells” value (PLD 1 μg/mL 24 h pre-incubation, then TNFα 20 ng/ml 12 h, or control media) of the same substance?
Its value is “minimal apoptosis”.
